Among the data in patent US5710164A, “Diheterocyclic styryl nitriles” (American Home Products Corporation, priority 1995, dated 1998) are IC50 and viability values, retold here.

Like-named read-outs stand apart in the source and are kept apart here.

For orientation: viability means a read-out of living cells in per cent, often relative to untreated cells.

In data set [1] the test system is porcine aortic smooth muscle cells. Description: inhibition of smooth muscle cell proliferation (3H thymidine, serum or PDGF stimulated). In kind it is cell-based. The settings on record: Sus scrofa, 24-36 h at 37° C. As to the method:
The ability of the compounds of the present invention to inhibit smooth muscle cell proliferation was established using isolated porcine aortic smooth muscle cells in a modification of the procedure of Castellot et al. J. Biol. Chem 257(19) 11256 (1982), as follows:
Fresh porcine aortas, scrupulously cleansed of fatty tissue, are rinsed in sterile phosphate-buffered saline with 2% antibiotic-antimycotic (100×) liquid (10,000 units of penicillin (base), 10,000 μg of streptomycin (base), and 25 μg of amphotericin B/mL utilizing penicillin G (sodium salt), streptomycin sulfate, and amphotericin B as Fungizone® in 0.85% saline, available from Gibco Laboratories, Grand Island Biological Co., Grand Island, N.Y.). The tissue is then digested in 10-15 mL of an enzyme solution containing collagenase type I, 165 U/mL; elastase type III, 15 U/mL; BSA, 2 mg/mL; and soybean trypsin inhibitor, 0.375 mg/mL, followed by incubation at 37° C. under 5% CO2 atmosphere for 10 to 15 minutes. After this treatment, the outer surface adventitia is removed by peeling with a forceps. The aorta is then longitudinally cut and laid open and the endothelial layer is removed by scraping.
The medial layer of cells is rinsed in the enzyme solution, and placed in a new 100 mm dish with 10 mL of enzyme solution. The medial layer of cells is minced using a fine pair of scissors and digested for 2-3 hours at 37° C. in 30 mL of fresh enzyme solution. After digestion, the medial tissue is homogenized using a sterile Pasteur pipette with a fire polished tip or an Eppendorf pipetter with a 200-1000 μL sterile pipette tip. The suspension is then centrifuged for 10 minutes at 8000 rpm and the pellet is suspended in 4-6 mL of fresh enzyme solution and plated onto 4-6 100 mm flasks with vented caps. The cells are then allowed to grow to confluence and split using 0.25% trypsin. The cells are evaluated for purity and overall quality using antibody to SMC actin.
The cells are assayed in early passage (generally passage 3-7) at sub-confluent conditions. Cultures are grown in 16 mm (24 well) multi-well culture dishes in media 199 supplemented with 10% fetal bovine serum and 2% antibiotic/antimycotic. At subconfluence, the cells are placed in a defined serum free, lymphocyte medium (AIM-V; Gibco) for 24-48 hours prior to initiating the experimental protocol.
The standard test procedure is initiated by addition of the test compound, ^3 H thymidine and serum or a specific growth factor to the serum deprived synchronized cells. Growth factor and serum stimulations are optimized for each cell type. The test compounds are added to each well at 50 fold dilution (20 μL/well) and the plates are incubated for 24-36 hours at 37° C. in 5% CO2 atmosphere. Test compounds are dissolved in 50% ethanol and assayed at 1, 10, and 100 μM. As a control, RG 50872 (Bilder, G. A.; et al., Am. J. Cell Physiol., 1991; 260: C721) is routinely assayed under the conditions of each cell preparation at a concentration of 5 μM.
At the completion of the experiment, the plates are placed on ice, washed three times with ice cold PBS and incubated in ice cold 10% trichloroacetic acid (TCA) for 30 minutes to remove acid soluble proteins. Each solution is transferred to a scintillation vial containing 0.4N HCl (500 μL/vial to neutralize NaOH) and each well is rinsed two times with water (500 μL) for a total volume of 2 mL/vial.
Data is quantitated by subjecting the vials to a scintillation counter, in triplicate, for both control and experimental samples. Control (100%) data is obtained from maximally stimulated cells, as the result of growth factor or serum stimulation. Experimental data is obtained from cells maximally stimulated with growth factor or serum and treated with a test compound. (The platelet-derived growth factor used in the assay was human recombinant PDGF-AB purchased from Upstate Biotechnology Inc., Lake Placid, N.Y.). Data is expressed as a percent of control from which IC50 s are determined.

Data set [2] in a line: cytotoxicity, modified MTT assay (% viable cells). In kind it is cell-based, porcine. The settings on record: pig, smooth muscle cells; fresh medium without serum, 24 h at 37° C.; no drug = 100% viable. The protocol: To distinguish cytotoxicity from the ability of a compound to prevent proliferation, the test compounds were examined using a commercial modification of the MTT assay. Briefly, cells were grown in 24 well plates to 70-80% confluency. The cells were serum deprived for 24-48 hours prior to initiation of the experimental protocol. To insure that the MTT assay monitored toxicity rather than proliferation, the cells were incubated with […] test compound in fresh medium without serum for 24 hours at 37° C. in a humidified CO2 incubator. Upon completion of the compound treatment, MTT indicator dye was added for 4 hours at 37° C. Cells were then solubilized and aliquots from each well were transferred to a 96-well plate for analysis. Absorbance at 570 nm wavelength with a reference wavelength of 630 nm was recorded using an ELISA plate reader. Results are reported as percent viable using no drug (100% viable) and pre-solubilization (0% viable) standards.

The mark [3] stands for this setting: human recombinant PDGF-AB stimulated, read-out: Porcine Smooth Muscle Cell Antiproliferation IC50 or % Inhibition at x Concentration, PDGF.
Setting [4] is: serum-stimulated, read-out: Porcine Smooth Muscle Cell Antiproliferation IC50 or % Inhibition at x Concentration, Serum.

Consider `N#C/C(=C\c1ccncc1)c1cccnc1` [Example 1, Z-2-(Pyridin-3yl)-3-(pyridin-4-yl)-acrylonitrile], for which the IC50 in data set [1] (setting [3]) was 346 nM; in data set [1] (setting [4]) it was 1160 nM. The viability at 24 h in data set [2] was 100%.

In the case of `N#CC(=Cc1ccnc2ccccc12)c1cccnc1` [Example 2, 2-Pyridin-3-yl-3-quinolin-4-yl-acrylonitrile], in data set [1] (setting [4]), the IC50 stood at 81000 nM.

`N#CC(=Cc1ccccn1)c1cccnc1` [Example 4, 2-Pyridin-3-yl-3-pyridin-2-yl-acrylonitrile]: in data set [1] (setting [4]), the IC50 turned out to be 48300 nM. In data set [2], the viability at 24 h stood at 92%.

For the molecule `N#CC(=Cc1c[nH]c2ncccc12)c1cccnc1` [Example 6, 2-(Pyridin-3-yl)-3-(1H-pyrrolo[2,3-b]pyridin-3-yl)-acrylonitrile], the IC50 worked out at 900 nM in data set [1] (setting [3]) and 1180 nM in data set [1] (setting [4]). In data set [2], the viability at 24 h was determined as 100%.

Regarding `N#CC(=Cc1cccnc1)c1cccnc1` [Example 5, 2,3-Di-pyridin-3-yl-acrylonitrile], the IC50 in data set [1] (setting [4]) was found to be 96600 nM.

As to `N#C/C(=C\c1ccc2c(c1)OCCO2)c1c[nH]c2ncccc12` [Example 7, (Z)-3-(2,3-Dihydro-benzo[1,4]dioxin-6-yl)-2-(1H-pyrrolo-[2,3-b]pyridin-3-yl)-acrylonitrile], the IC50 turned out to be 14800 nM in data set [1] (setting [3]) and 1230 nM in data set [1] (setting [4]). The viability at 24 h in data set [2] turned out to be 100%.

As to `N#CC(=Cc1ccc[nH]1)c1cccnc1` [Example 9, 2-(Pyridin-3-yl)-3-(1H-pyrrol-2-yl)-acrylonitrile], the IC50 in data set [1] (setting [4]) came to 92000 nM. Also, in data set [2], the viability at 24 h is 84%.

As for `CCn1c2ccccc2c2cc(/C=C(\C#N)c3cccnc3)ccc21` [Example 8, (Z)-3-(9-Ethyl-9H-carbazol-3-yl)-2-(pyridin-3-yl) acrylonitrile], the results for the IC50 in data set [1] (setting [3]) and in data set [1] (setting [4]) were 336 nM and 355 nM, respectively. In data set [2], the viability at 24 h stood at 100%.

Turning to `N#CC(=Cc1ccc2c(c1)OCCO2)c1cccnc1` [Example 3, 3-(2,3-Dihydro-benzo[1,4]dioxin-6-yl)-2-pyridin-3-yl-acrylonitrile], the results for the IC50 in data set [1] (setting [3]) and in data set [1] (setting [4]) were 10500 nM and 3800 to 11500 nM, respectively. Moreover, the viability at 24 h in data set [2] was determined as 86%.
